Data: the OligoGym collection
After the bases stand the sugars from the 5' end (letter, count) and the backbone: PS all phosphorothioate, else s phosphorothioate and o phosphodiester by linkage. Methylation of C is not given here. e = 2'-O-(2-methoxyethyl) (MOE); k = constrained ethyl (cEt); d = 2'-deoxy (DNA); m = 2'-O-methyl

Molecular target: HSD17B13
Details: ASO, HepaRG

Sequence | target mRNA inhibition (1 µM) | also measured
GATTGGAATGCTACTT (sugars k3 d10 k3, PS) | 58% | –
GATTGGAATGCTACTT (sugars kkkddddkddddkkke, PS) | 59% | –
GATTTAGTTGGTAGCT (sugars k3 d10 k3, PS) | 63% | –
GCAAAGATCTGGCCAG (sugars k3 d10 k3, PS) | 22% | –
GCAAGCCAACAGAGAG (sugars kkdddddddddkekek, PS) | 12% | –
GCAAGGATACCTGAAA (sugars k3 d10 k3, PS) | 67% | –
GCACCGTTTTGGGCTA (sugars k3 d1 m1 d8 k3, PS) | 67% | –
GCACTAAAGGTTTCTG (sugars k3 d10 k3, PS) | 75% | target mRNA inhibition (0.02 µM): 24%; target mRNA inhibition (0.078 µM): 39%; target mRNA inhibition (0.313 µM): 58%; target mRNA inhibition (1.25 µM): 79%; target mRNA inhibition (5 µM): 90%
GCAGAGACATGAGGTT (sugars k3 d10 k3, PS) | 55% | –
GCAGCTAAAATCCAAT (sugars k3 d10 k3, PS) | 70% | –
GCAGTTATTAGAAGTC (sugars kkdddddddddkekek, PS) | 68% | –
GCAGUTATTAGAAGTC (sugars k3 d1 m1 d8 k3, PS) | 59% | –
GCATAAGAGATGAGTA (sugars k3 d10 k3, PS) | 33% | –
GCATCTTAAGATACCC (sugars k3 d10 k3, PS) | 82% | target mRNA inhibition (0.02 µM): 16%; target mRNA inhibition (0.078 µM): 45%; target mRNA inhibition (0.313 µM): 82%; target mRNA inhibition (1.25 µM): 89%; target mRNA inhibition (5 µM): 97%
GCATCTTAAGATACCC (sugars kkdddddddddkekek, PS) | 41% | –
GCATGGCTACAGATTG (sugars k3 d9 k3 e1, PS) | 67% | –
GCATTAAAACTCTCAT (sugars k3 d10 k3, PS) | 35% | –
GCATTAATGCCACCCT (sugars k3 d9 k3 e1, PS) | 51% | –
GCATTATTCACCACGA (sugars k3 d10 k3, PS) | 59% | –
GCATTGAAAAGATGTA (sugars k3 d10 k3, PS) | 0% | –
GCATTGATTCGAAACT (sugars k3 d10 k3, PS) | 66% | –
GCATTGTAATCTTGAG (sugars k3 d10 k3, PS) | 35% | –
GCCAACAGCGGCAAAT (sugars k3 d10 k3, PS) | 30% | –
GCCAAGGGAACACTGT (sugars k3 d10 k3, PS) | 61% | –
GCCAGGGAATGCTCAT (sugars k3 d10 k3, PS) | 38% | –

Sequence | target mRNA inhibition (1 µM) | also measured
GCCATAATCTGTGATT (sugars k3 d10 k3, PS) | 0% | –
GCCCTAGATTCTACAC (sugars k3 d10 k3, PS) | 15% | –
GCCTAAACAAACACTA (sugars k3 d10 k3, PS) | 37% | –
GCCTTGAATAGCAAGC (sugars kkdddddddddkekek, PS) | 16% | –
GCCTTTTAACTACCCT (sugars k3 d10 k3, PS) | 0% | –
GCTAAAAGCTCACCAA (sugars k3 d10 k3, PS) | 26% | –
GCTAAACCCTGGAGCA (sugars k3 d10 k3, PS) | 5% | –
GCTACAGATTGGAATG (sugars k3 d10 k3, PS) | 47% | –
GCTACTTGAACAGTCT (sugars k3 d10 k3, PS) | 66% | –
GCTAGGGAAATCTTTC (sugars k3 d10 k3, PS) | 66% | –
GCTAGTGCCAAACCAA (sugars k3 d1 m1 d8 k3, PS) | 65% | –
GCTAGTGCCAAACCAA (sugars k3 d10 k3, PS) | 70% | target mRNA inhibition (0.02 µM): 0%; target mRNA inhibition (0.078 µM): 8%; target mRNA inhibition (0.313 µM): 39%; target mRNA inhibition (1.25 µM): 65%; target mRNA inhibition (5 µM): 87%
GCTAGTGCCAAACCAA (sugars kkdddddddddkekek, PS) | 62% | –
GCTCCATAATAATAGC (sugars kkdddddddddkekek, PS) | 15% | –
GCTGAGAAGATCGGCT (sugars k3 d10 k3, PS) | 10% | –
GCTGAGAGAGTATTTC (sugars k3 d10 k3, PS) | 51% | –
GCTGCTAGTGCCAAAC (sugars k3 d1 m1 d8 k3, PS) | 39% | –
GCTGTAAGAGTCAGTA (sugars k3 d10 k3, PS) | 89% | target mRNA inhibition (0.02 µM): 5%; target mRNA inhibition (0.078 µM): 0%; target mRNA inhibition (0.313 µM): 2%; target mRNA inhibition (1.25 µM): 57%; target mRNA inhibition (5 µM): 82%
GCTGTACAGTAGGCAG (sugars k3 d10 k3, PS) | 66% | –
GCTTAAATGTTTAACC (sugars k3 d10 k3, PS) | 67% | –
GCTTAGTACCAAGACA (sugars k3 d10 k3, PS) | 62% | –
GCTTAGTGTAGAATTG (sugars k3 d10 k3, PS) | 16% | –
GCTTATCGAGTTTAGC (sugars k3 d10 k3, PS) | 17% | –
GCTTTTGTCCACCTTT (sugars kkdddddddddkekek, PS) | 75% | target mRNA inhibition (0.02 µM): 28%; target mRNA inhibition (0.078 µM): 25%; target mRNA inhibition (0.313 µM): 45%; target mRNA inhibition (1.25 µM): 81%; target mRNA inhibition (5 µM): 87%
